Molecular target: T1, TS isolated from human ovarian CH1 cells (CH1 TS) (Homo sapiens, UniProt P04818)
T1 construct: gene TYMS; native enzyme partially purified from CH1 ovarian tumour cells (parental line), no tag
Test: 3H release from [[…]-3H]dUMP, non-linear regression
Assay type: biochemical

T1 sequence (P04818 2-313): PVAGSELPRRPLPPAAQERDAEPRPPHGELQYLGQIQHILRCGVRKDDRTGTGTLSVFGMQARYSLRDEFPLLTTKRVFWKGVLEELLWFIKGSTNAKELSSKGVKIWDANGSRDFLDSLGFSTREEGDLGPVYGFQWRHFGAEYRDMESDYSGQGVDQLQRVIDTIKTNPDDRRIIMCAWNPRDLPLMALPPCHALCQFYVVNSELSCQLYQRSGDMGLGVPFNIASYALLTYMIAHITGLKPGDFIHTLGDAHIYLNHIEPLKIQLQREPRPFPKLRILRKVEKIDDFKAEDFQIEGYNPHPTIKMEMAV

- Ki: 1.6 ± 0.1 nM
Structure (SMILES): Cc1nc2ccc(CN(C)c3ccc(C(=O)N[C@@H](CCC(=O)N[C@@H](CCC(=O)N[C@@H](CCC(=O)O)C(=O)O)C(=O)O)C(=O)O)s3)cc2c(=O)[nH]1 [ZD1694 triglutamate]
